Experimental data as given in patent US8741836B2, “Polypeptides” (Novo Nordisk A/S, priority 2011, dated 2014).
Like-named read-outs stand apart in the source and are kept apart here. Starred links: 1 amine or outer side, 2 acyl side, 3 side chain; linkers in the order of their positions; H or OH if unused. Positions of bridges follow the written chain, without caps; N, C: chain ends. Residues, ends and D or L forms follow the SMILES beside them. Groups on a side chain read outwards from the residue. *: point of attachment. C18 diacid = O=C(O)CCCCCCCCCCCCCCCCC(=O)*; γGlu = O=C(O)[C@H](CCC(=O)[*:2])N[*:1]; AEEA = NCCOCCOCC(=O)O

What was measured:
[1] = molecular target: T1, human amylin 3(a) receptor (human calcitonin receptor + RAMP-3) (Homo sapiens, UniProt O60896+P30988); assay: Assay (II)a functional assay, human amylin receptor (CRE luciferase reporter in BHK cells); type: cell-based
T1 construct: expressed in transfected cells; CRE-luciferase reporter
T1 sequence (P30988 25-474): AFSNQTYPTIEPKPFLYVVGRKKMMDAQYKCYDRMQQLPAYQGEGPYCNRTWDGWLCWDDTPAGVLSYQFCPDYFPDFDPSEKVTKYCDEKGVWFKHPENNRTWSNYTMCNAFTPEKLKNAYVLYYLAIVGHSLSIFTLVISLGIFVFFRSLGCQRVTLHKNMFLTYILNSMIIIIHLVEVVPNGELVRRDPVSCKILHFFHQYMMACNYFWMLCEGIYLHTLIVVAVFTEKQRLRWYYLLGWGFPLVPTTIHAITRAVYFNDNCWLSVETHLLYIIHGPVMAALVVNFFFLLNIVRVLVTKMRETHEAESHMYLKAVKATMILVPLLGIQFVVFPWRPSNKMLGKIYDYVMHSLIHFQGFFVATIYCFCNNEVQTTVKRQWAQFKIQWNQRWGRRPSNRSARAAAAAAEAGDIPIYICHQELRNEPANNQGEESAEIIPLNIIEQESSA
T1 sequence (O60896 24-148 partner): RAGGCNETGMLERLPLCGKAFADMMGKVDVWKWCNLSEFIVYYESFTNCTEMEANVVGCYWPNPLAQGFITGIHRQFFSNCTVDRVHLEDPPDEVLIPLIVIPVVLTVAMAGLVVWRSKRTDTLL
Excerpt: (§1) 1. Luciferase Assay Outline
(§2) Activation of calcitonin and amylin (coexpression of calcitonin receptor and receptor activity modifying proteins (RAMP)) receptors lead to increased intracellular concentrations of cAMP. Consequently, transcription is activated by promoters containing multiple copies of the cAMP response element (CRE). It is thus possible to measure amylin activity by the use of a CRE luciferase reporter gene introduced into BHK cells also expressing calcitonin or amylin receptors.
(§3) A BHK570 cell line was stably transfected with the human calcitonin receptor and a CRE-responsive luciferase reporter gene. The cell line was further transfected with RAMP-3, using standard methods. This turns the calcitonin receptor into an amylin 3(a) receptor. Methotrexate, Neomycin, and Hygromycin are selection markers for luciferase, the calcitonin receptor, and RAMP-3, respectively.
(§4) To perform activity assays, BHK calcitonin (a) receptor- or amylin 3(a)-receptor/CRE-luc cells were seeded in white 96 well culture plates at a density of about 20.000 cells/well. […] After incubation overnight at 37° C. and 5% CO2, the growth medium was replaced by 50 μl/well assay medium (DMEM (without phenol red), Glutamax™, 10% FBS, and 10 mM Hepes, pH 7.4). Further, 50 μl/well of standard or sample in assay buffer were added. After 3 hours incubation at 37° C. and 5% CO2, the assay medium with standard or sample were removed and replaced by 100 μl/well PBS. Further, 100 μl/well LucLite™ was added. The plates were sealed and incubated at room temperature for 30 minutes. Finally, luminescence was measured on a TopCounter (Packard) in SPC (single photon counting) mode.

[2] = molecular target: T2, human calcitonin receptor (Homo sapiens, UniProt P30988); assay: Assay (II)a functional assay, human calcitonin receptor (CRE luciferase reporter in BHK cells); type: cell-based
T2 construct: expressed in transfected cells; CRE-luciferase reporter
T2 sequence (P30988 25-474): T1 sequence (P30988 25-474)
Excerpt: as §1, §2, §3, §4

[3] = Assay (III) ThT fibrillation assay for physical stability; type: physicochemical
How it was run: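 Freshly prepared, pH-adjusted formulations with 1 μM ThT incubated at 37 °C under 960 rpm orbital shaking (1 mm), fluorescence (ex 444, em 485 nm) read every 20 min. […] Peptide content before and after measured by reverse-phase HPLC against pramlintide standard.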

EC50 [1]: 0.184 nM | EC50 ([1]; Table 4): 0.184 nM | EC50 ([1]; Table 5): 0.184 nM | EC50 ([1]; Table 6, human amylin receptor): 0.184 nM | EC50 ([1]; Table 7, human amylin receptor): 0.184 nM | EC50 ([1]; Table 8, human amylin receptor): 0.184 nM | EC50 ([1]; Table 11, human amylin receptor): 0.184 nM | EC50 ([2]; Table 7, human calcitonin (CTa) receptor): 0.216 nM | EC50 ([2]; Table 11, human calcitonin receptor, read-out: CTa receptor human EC50): 0.216 nM | ThT pH 4.0 lag time (physical stability in fibrillogenesis assay) ([3]; pH 4.0): >45 h | ThT pH 4.0 lag time ([3]; pH 4.0, ThT fibrillation assay): >45 h
Compound: CC[C@H](C)[C@H](NC(=O)[C@@H]1CCCN1C(=O)CNC(=O)[C@H](Cc1ccccc1)NC(=O)[C@H](CC(N)=O)NC(=O)[C@H](CCCCNC(=O)COCCOCCNC(=O)COCCOCCNC(=O)CC[C@H](NC(=O)CCCCCCCCCCCCCCCCC(=O)O)C(=O)O)NC(=O)[C@H](CO)NC(=O)[C@H](CO)NC(=O)[C@H](Cc1c[nH]cn1)NC(=O)[C@H](Cc1c[nH]cn1)NC(=O)[C@H](CC(C)C)NC(=O)[C@H](Cc1ccccc1)NC(=O)[C@H](CCC(=O)O)NC(=O)[C@H](C)NC(=O)[C@H](CC(C)C)NC(=O)[C@H](CCCNC(=N)N)NC(=O)[C@H](CCC(N)=O)NC(=O)[C@@H](NC(=O)[C@H](C)NC(=O)[C@@H]1CSSC[C@H](NC(=O)[C@@H](N)CCCCN)C(=O)N[C@@H](CC(N)=O)C(=O)N[C@@H]([C@@H](C)O)C(=O)N[C@@H](C)C(=O)N[C@@H]([C@@H](C)O)C(=O)N1)[C@@H](C)O)C(=O)N[C@@H](CC(C)C)C(=O)N1CCC[C@H]1C(=O)N1CCC[C@H]1C(=O)N[C@H](C(=O)N[C@@H](CC(N)=O)C(=O)N[C@H](C(=O)NCC(=O)N[C@@H](CO)C(=O)N[C@@H](CCC(=O)O)C(=O)N[C@H](C(=O)N[C@@H](Cc1ccc(O)cc1)C(N)=O)[C@@H](C)O)C(C)C)[C@@H](C)O [Example 74, N-epsilon21-[2-(2-{2-[2-(2-{2-[(S)-4-Carboxy-4-(17-carboxyheptadecanoylamino)butyrylamino]ethoxy}ethoxy)acetylamino]ethoxy}ethoxy)acetyl]-[Glu14,His17,Lys21,Glu35]-pramlintide] (H-KCNTATCATQRLAEFLHHSSK([AEEA-AEEA-γGlu-C18 diacid])NFGPILPPTNVGSETY-NH2; disulfide 2-7 (inferred); N-terminus and C-terminus assumed)
